What all share (assay type): functional, cell-based
Experiment [1] relates to HT-29. Description: Tested for cytotoxicity against HT-29 (wt)cells. The following applies: Homo sapiens.
Experiment [2] concerns HT-29. Description: Tested for cytotoxicity against HT-29 (MDR)cells. The following applies: Homo sapiens.
The next experiment concerns B16. Description: Tested in vitro growth inhibition against B16 melanotic melanoma cells. The following applies: Mus musculus.

One may read the IC50 as the midpoint of a concentration-inhibition curve. The low end stands for inhibition by little substance, the high end for a need for much substance.

Turning to `C/C=C/C(=O)OCC1=CCCCC1=O`, the IC50 in the experiment with HT-29 [1] is 800 nM; in the experiment with HT-29 [2] it was 1800 nM; in the experiment with B16, 41 nM.
`C/C=C/C(=O)OCC1=CCCC1=O`: the IC50 with B16 amounted to 144 nM.
In the experiment with B16, `C/C=C/C(=O)OCC1=CCCCCC1=O` showed an IC50 of 29 nM.
With `CC[C@]1(O)C[C@H]2CN(CCc3c([nH]c4ccccc34)[C@@](C(=O)OC)(c3cc4c(cc3OC)N(C=O)[C@H]3[C@@](O)(C(=O)OC)[C@H](OC(C)=O)[C@]5(CC)C=CCN6CC[C@]43[C@@H]65)C2)C1` [VINCRISTINE], the IC50 turned out to be 1 nM in the experiment on HT-29 [1] and 17 nM in the experiment on HT-29 [2].

For the origin of these results see ChEMBL document CHEMBL1145018, “Molecular basis of the antitumor activities of 2-crotonyloxymethyl-2-cycloalkenones” (J Med Chem, 2003).
